US20220242846A1, “ISOINDOLINONE COMPOUNDS” (Monte Rosa Therapeutics AG, priority 2019, published 2022)
Like-named read-outs stand apart in the source and are kept apart here.

Columns and labels:
[1] = molecular target: GSPT1 (Homo sapiens, UniProt P15170+Q96SW2); assay: Immunofluorescence assay for GSPT1 degradation in CAL-51 cells; format: cell-based; design: CAL-51 cells were purchased from DSMZ (cat. Number ACC302); endogenous in cells; host or cells: CAL-51 (DSMZ ACC302); conditions: compound treatment 6 hours
GSPT1, sequence (P15170 whole entry): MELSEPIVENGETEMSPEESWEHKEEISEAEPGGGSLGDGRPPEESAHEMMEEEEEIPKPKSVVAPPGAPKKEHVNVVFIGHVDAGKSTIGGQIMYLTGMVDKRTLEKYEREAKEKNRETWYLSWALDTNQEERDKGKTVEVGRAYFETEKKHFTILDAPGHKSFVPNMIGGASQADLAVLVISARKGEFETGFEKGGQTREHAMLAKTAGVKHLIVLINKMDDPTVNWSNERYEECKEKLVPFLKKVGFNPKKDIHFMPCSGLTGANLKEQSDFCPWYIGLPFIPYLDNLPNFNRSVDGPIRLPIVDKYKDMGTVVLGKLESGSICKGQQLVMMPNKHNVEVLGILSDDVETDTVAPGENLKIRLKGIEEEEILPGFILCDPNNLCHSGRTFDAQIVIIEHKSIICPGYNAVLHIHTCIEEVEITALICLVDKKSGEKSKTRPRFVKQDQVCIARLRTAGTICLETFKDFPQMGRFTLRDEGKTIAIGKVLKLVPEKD
GSPT1, sequence (Q96SW2 whole entry): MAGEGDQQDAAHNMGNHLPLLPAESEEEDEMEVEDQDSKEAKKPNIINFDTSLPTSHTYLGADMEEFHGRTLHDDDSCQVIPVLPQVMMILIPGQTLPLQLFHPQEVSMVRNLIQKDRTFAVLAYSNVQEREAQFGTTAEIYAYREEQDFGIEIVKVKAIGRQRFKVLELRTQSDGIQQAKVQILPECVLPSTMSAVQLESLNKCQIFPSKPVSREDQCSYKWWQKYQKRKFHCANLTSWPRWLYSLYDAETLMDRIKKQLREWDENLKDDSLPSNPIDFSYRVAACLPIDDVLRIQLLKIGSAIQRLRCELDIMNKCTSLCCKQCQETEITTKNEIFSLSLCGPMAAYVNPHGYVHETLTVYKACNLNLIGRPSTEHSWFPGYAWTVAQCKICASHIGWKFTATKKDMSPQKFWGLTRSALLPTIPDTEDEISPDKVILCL
GSPT1, sequence (Q16531 2-1140 partner limits assumed): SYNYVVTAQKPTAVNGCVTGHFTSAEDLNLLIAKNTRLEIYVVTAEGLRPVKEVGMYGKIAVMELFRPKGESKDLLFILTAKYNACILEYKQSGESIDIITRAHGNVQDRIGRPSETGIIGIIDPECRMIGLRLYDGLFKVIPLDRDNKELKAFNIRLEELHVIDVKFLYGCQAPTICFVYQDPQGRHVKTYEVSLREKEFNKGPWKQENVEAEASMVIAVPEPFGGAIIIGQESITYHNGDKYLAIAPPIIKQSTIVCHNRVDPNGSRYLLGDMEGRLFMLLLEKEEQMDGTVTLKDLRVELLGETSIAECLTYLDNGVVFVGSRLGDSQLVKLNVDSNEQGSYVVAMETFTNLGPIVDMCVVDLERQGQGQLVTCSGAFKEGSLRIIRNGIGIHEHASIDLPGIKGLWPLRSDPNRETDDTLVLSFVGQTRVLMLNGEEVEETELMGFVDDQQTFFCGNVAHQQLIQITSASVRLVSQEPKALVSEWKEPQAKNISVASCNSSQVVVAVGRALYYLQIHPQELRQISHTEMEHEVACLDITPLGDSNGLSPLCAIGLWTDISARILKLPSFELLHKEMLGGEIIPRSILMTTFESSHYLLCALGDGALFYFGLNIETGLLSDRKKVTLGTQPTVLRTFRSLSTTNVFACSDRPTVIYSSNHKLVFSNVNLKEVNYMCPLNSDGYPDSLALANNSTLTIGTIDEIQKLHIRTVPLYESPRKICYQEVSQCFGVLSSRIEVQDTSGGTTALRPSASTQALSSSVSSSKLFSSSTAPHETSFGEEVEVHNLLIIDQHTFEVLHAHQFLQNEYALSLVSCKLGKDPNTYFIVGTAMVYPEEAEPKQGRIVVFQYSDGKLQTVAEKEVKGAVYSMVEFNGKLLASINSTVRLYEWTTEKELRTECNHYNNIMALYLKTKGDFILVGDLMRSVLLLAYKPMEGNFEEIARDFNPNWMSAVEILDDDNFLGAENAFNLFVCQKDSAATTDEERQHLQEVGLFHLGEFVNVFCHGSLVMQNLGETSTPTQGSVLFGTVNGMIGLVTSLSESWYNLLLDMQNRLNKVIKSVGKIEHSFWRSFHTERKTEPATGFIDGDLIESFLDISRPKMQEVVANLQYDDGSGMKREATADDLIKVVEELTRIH
Method: CAL-51 cells were purchased from DSMZ (cat. Number ACC302), sub-cultured in 90% Dulbecco's MEM (4.5 g/L glucose, Gibco 11965) +10% heat inactivated FBS (BioConcept, 2-01F136I) and incubated at 37° C., 5% CO2. For the assay, imaging microtiterplate Cell Carrier 96 Ultra (Perkin Elmer 6055302) were pre-coated with Fibronectin (Sigma F085, 300 at 0.2 μg/ml) in PBS (1000, Gibco 14190) for 45 min at room temperature, rinsed with PBS and CAL-51 cells (30K cells/well) were plated and let to adhere overnight. Cells were treated with compounds typically using a serial dilution ranging from 30 μM to 0.1 nM for 6 hours. Compounds were stored at 10 mM DMSO stocks. Vehicle (DMSO), positive (CC-885, 10 μM) and rescue controls (positive control plus 0.2 μM bortezomib) were also included at this stage. Cells were subsequently rinsed with PBS and fixed in 10% Formalin solution (50 μl, Sigma HT5011)) for 20 mins at room temperature. Following three consecutive PBS washes (100 μl), cells were permeabilized in 0.1% Triton X-100 in PBS (Sigma 93443, 50 μl) for 15 mins at room temperature. Following three further PBS washes, 50 μl blocking buffer (1% BSA, Sigma A4503, in PBS) was added for 45 min for signal-to-noise reduction. Primary antibody (human GSPT1, Sigma HPA052488) was diluted in blocking buffer (dil. 1/300, 35 μl/well) and incubated with the cells overnight at 4° C. After three PBS washes, Alexa-fluor 488 coupled secondary antibodies (Invitrogen, A32731, dil. 1/1000), Alexa-fluor 647-Phalloïdin (Invitrogen, A22287, dil. 1/200) and DAPI (Thermo, #62248, dil.1/1000) were diluted in blocking buffer and incubated with the samples for 2 hours at room temperature. After three final PBS washes, samples were conserved in 1000 PBS in the dark, until measurement. Image acquisition was performed on the Operetta High-Content Imager (Perkin-Elmer). Fluorescence intensity of Alexa-Fluor 488 (GSPT1), Alexa-Fluor 647 (Actin) and DAPI (Nucleus) were measured. For the determination of GSPT1 DC50 values, a custom algorithm implemented in the PerkinElmer image analysis software Harmony-Acapella® was developed. After user-defined setting of adjustment parameters, the analysis was run identically without human intervention for all image fields. DAPI staining of the nuclei was used to determine the location of cells using standard nuclei detection modules. Segmentation artifacts were removed by threshold-based filters for area, roundness and intensity. The outline of the cells was determined analogously from the sum of the normalized, smoothed DAPI and Actin channel, starting from each nucleus. The Alexa-Fluor 488 (GSPT1) signal intensity in each cell was finally measured, in order to obtain a Mean intensity per cell. GSPT1 degradation (DC50) was calculated after normalization to controls and data import in CDD vault Database, using non-linear regression. Activity for GSPT1 Degradation Table 3 assigns each compound a code indicating the ability for GSPT1 degradation: A, B or C. According to the code, A represents a DC50 value of ≤100 nM, B represents a DC50 value >100 nM and ≤300 nM and C represents a DC50 value of >300 nM.

[2] = molecular target: T1, Full length wild-type cereblon CRBN (Homo sapiens, UniProt Q96SW2); assay: Fluorescence polarization (FP) assay indicating cereblon binding; conditions: CRBN 80.0 nM, fluorescent probe 5 nM, FP measured after 12 hours; read-out: rFP IC50
T1 construct: Full length wild-type cereblon CRBN (80.0 nM, 10 μL) was incubated in assay buffer
T1 sequence (Q96SW2 whole entry): as the sequence (Q96SW2 whole entry) above
Text: Protocol for Fluorescent Polarization Assay
Compound activity was monitored in a fluorescence polarization (FP) homogeneous assay using 1-[5-({2-[2-(2-{[2-(2,6-dioxopiperidin-3-yl)-1,3-dioxo-2,3-dihydro-1H-isoindol-4-yl]oxy}acetamido)ethoxy]ethyl}carbamoyl)pentyl]-3,3-dimethyl-2-[(1E,3E)-5-[(2E)-1,3,3-trimethyl-5-sulfo-2,3-dihydro-1H-indol-2-ylidene]penta-1,3-dien-1-yl]-3H-indol-1-ium-5-sulfonate as a fluorescent probe. Unless otherwise stated, all reagents were purchased from Sigma Aldrich. Enzymatic reactions were conducted in Perkin-Elmer Black 384 well ProxiPlate Plus (catalogue no. 6008269) in 10 μL total volume. Full length wild-type cereblon CRBN (80.0 nM, 10 μL) was incubated in assay buffer containing 20 mM HEPES (pH 8.0), […], 0.5 mM TCEP and 0.05% Tween 20 in the presence or absence of compound (300 nL). Inhibitors were stored as 10 mM DMSO stocks in an inert environment (low humidity, dark, low oxygen, room temperature) using the Storage Pod System. Compounds and DMSO were dispensed using the Echo E5XX (Labcyte Inc. USA) to give concentrations from 300 to 0.937 or 3000 to 9.3 nM in a 12 data point curve. […] Following incubation at room temperature for […], the assay was initiated by dispensing the probe to a final concentration of 5 nM (2.5 nL of a 20 μM stock) using the Echo E5XX. FP was measured after a period of 12 hours using a Pherastar plate reader (BMG Labtech, Germany) exciting at 590 nm and measuring the amount of parallel and perpendicular light at 675 nm. The FP signal was subsequently normalized to the no-compound control (i.e., DMSO). Analysis and IC50 values were derived using Dotmatics (Dotmatics UK) software.

[3] = read-out: Code: activity for GSPT1 degradation (DC50)
[4] = GSPT1 degradation, read-out: DC50

SMILES	DC50 [1, 3] [nM]	IC50 [2] [nM]	DC50 [1, 4] [nM]
O=C1CCC(N2Cc3ccc(CNC(=O)Nc4ccccn4)cc3C2=O)C(=O)N1 (stereo not shown) [Compound 123]	> 300	570	
Cc1cc(NC(=O)NCc2ccc3c(c2)C(=O)N(C2CCC(=O)NC2=O)C3)sn1 (stereo not shown) [Compound 146]	> 300	341	
O=C1CCC(N2Cc3ccc(CNC(=O)Nc4cccc(Oc5ccccn5)c4)cc3C2=O)C(=O)N1 (stereo not shown) [Compound 121]	100 to 300	243	
Cc1cc(NC(=O)NCc2ccc3c(c2)C(=O)N(C2CCC(=O)NC2=O)C3)no1 (stereo not shown) [Compound 97]	> 300	301	
Cc1cnc(NC(=O)NCc2ccc3c(c2)C(=O)N(C2CCC(=O)NC2=O)C3)s1 (stereo not shown) [Compound 147]	> 300	253	
Cc1ccc(NC(=O)NCc2ccc3c(c2)C(=O)N(C2CCC(=O)NC2=O)C3)c(C)c1Cl (stereo not shown) [Compound 93]	> 300	248	
Cc1c(Cl)cc(NC(=O)NCc2ccc3c(c2)C(=O)N(C2CCC(=O)NC2=O)C3)cc1C12CC1CN(C)C2 (stereo not shown) [Compound 155]	100 to 300	581	176
O=C1CCC(N2Cc3ccc(CNC(=O)Nc4cc(C(F)(F)F)ns4)cc3C2=O)C(=O)N1 (stereo not shown) [Compound 149]	> 300	1130	
Cc1c(Cl)cc(NC(=O)NCc2ccc3c(c2)C(=O)N(C2CCC(=O)NC2=O)C3)cc1CN1CC2(COC2)C1 (stereo not shown) [Compound 109]	100 to 300	163	246
Cc1c(Cl)cc(NC(=O)NCc2ccc3c(c2)C(=O)N(C2CCC(=O)NC2=O)C3)cc1OCCN1CCOCC1 (stereo not shown) [Compound 127]	≤ 100	261	
Cc1c(Cl)cc(NC(=O)NCc2ccc3c(c2)C(=O)N(C2CCC(=O)NC2=O)C3)cc1CN1CCC(N2CCOCC2)CC1 (stereo not shown) [Compound 126]	> 300	193	
Cc1ccc(NC(=O)NCc2ccc3c(c2)C(=O)N(C2CCC(=O)NC2=O)C3)cc1CN1CCOCC1 (stereo not shown) [Compound 101, 1-((2-(2,6-dioxopiperidin-3-yl)-3-oxoisoindolin-5-yl)methyl)-3-(4-methyl-3-(morpholinomethyl)phenyl)urea]	100 to 300	325	224
O=C1CCC(N2Cc3ccc(CNC(=O)Nc4ccon4)cc3C2=O)C(=O)N1 (stereo not shown) [Compound 94]	> 300	408	
O=C1CCC(N2Cc3ccc(CNC(=O)Nc4cncs4)cc3C2=O)C(=O)N1 (stereo not shown) [Compound 103]	> 300	272	
Cc1c(Cl)cc(NC(=O)NCc2ccc3c(c2)C(=O)N(C2CCC(=O)NC2=O)C3)cc1OC(F)(F)F (stereo not shown) [Compound 143]	100 to 300	3590	
Cc1c(CN2CCOCC2)cc(NC(=O)NCc2ccc3c(c2)C(=O)N(C2CCC(=O)NC2=O)C3)cc1OC(F)(F)F (stereo not shown) [Compound 151]	≤ 100	883	

SMILES	DC50 [1, 3] [nM]	IC50 [2] [nM]	DC50 [1, 4] [nM]
O=C1CCC(N2Cc3ccc(CNC(=O)Nc4cccc(-c5ncc[nH]5)c4)cc3C2=O)C(=O)N1 (stereo not shown) [Compound 112]	> 300	270	
CN(C)c1cccc(NC(=O)NCc2ccc3c(c2)C(=O)N(C2CCC(=O)NC2=O)C3)c1 (stereo not shown) [Compound 89]	100 to 300	225	198
O=C1CCC(N2Cc3ccc(CNC(=O)Nc4cccs4)cc3C2=O)C(=O)N1 (stereo not shown) [Compound 91]	> 300	315	
Cc1cc(Cl)c(NC(=O)NCc2ccc3c(c2)C(=O)N(C2CCC(=O)NC2=O)C3)c(C)c1Cl (stereo not shown) [Compound 96]	> 300	222	
Cc1ncc(NC(=O)NCc2ccc3c(c2)C(=O)N(C2CCC(=O)NC2=O)C3)cc1Cl (stereo not shown) [Compound 157]	> 300	1520	
CC(C)(O)c1cccc(NC(=O)NCc2ccc3c(c2)C(=O)N(C2CCC(=O)NC2=O)C3)c1 (stereo not shown) [Compound 135]	> 300	477	
CCc1cnc(NC(=O)NCc2ccc3c(c2)C(=O)N(C2CCC(=O)NC2=O)C3)s1 (stereo not shown) [Compound 148]	> 300	169	
COc1c(NC(=O)NCc2ccc3c(c2)C(=O)N(C2CCC(=O)NC2=O)C3)ccc(C)c1Cl (stereo not shown) [Compound 86]	> 300	203	
Cc1cc(NC(=O)NCc2ccc3c(c2)C(=O)N(C2CCC(=O)NC2=O)C3)cc(C)n1 (stereo not shown) [Compound 158]	> 300	1440	
O=C1CCC(N2Cc3ccc(CNC(=O)Nc4cccc(OC(F)(F)F)c4)cc3C2=O)C(=O)N1 (stereo not shown) [Compound 90]	≤ 100	471	
Cc1cc(NC(=O)NCc2ccc3c(c2)C(=O)N(C2CCC(=O)NC2=O)C3)cc(CN2CCOCC2)c1C (stereo not shown) [Compound 118]	≤ 100	256	
Cc1nc(NC(=O)NCc2ccc3c(c2)C(=O)N(C2CCC(=O)NC2=O)C3)sc1C (stereo not shown) [Compound 150]	> 300	304	
O=C1CCC(N2Cc3ccc(CNC(=O)Nc4cccc(C(F)F)c4)cc3C2=O)C(=O)N1 (stereo not shown) [Compound 106]	100 to 300	353	188
CC(C)(C)c1ccc(NC(=O)NCc2ccc3c(c2)C(=O)N(C2CCC(=O)NC2=O)C3)cn1 (stereo not shown) [Compound 163]	≤ 100	1470	
O=C1CCC(N2Cc3ccc(CNC(=O)Nc4cccc(OC5CCNCC5)c4)cc3C2=O)C(=O)N1 (stereo not shown) [Compound 111]	> 300	240	
